Where two headings read alike, the source gives them in different places.
Tests used:
Type in all cases: cell-based, Plasmodium falciparum
[1] = test system: P. falciparum Dd2 (clone B2) asexual blood stage parasites; assay: P. falciparum Dd2 asexual blood stage SYBR Green-I 72 h proliferation assay (qHTS); conditions: Plasmodium falciparum
[2] = test system: P. falciparum Dd2 Cytb G131S; assay: SYBR Green ABS proliferation assay, NCGC00374598 selected clone C11; conditions: Plasmodium falciparum
In short: (§1)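 Drug-selected P. falciparum Dd2 clones carrying Cytb mutations, obtained by limiting-dilution cloning, grown in RBCs at 37 °C under 5% CO2/5% O2/90% N2. Growth read by SYBR Green-I fluorescence at 72 h and normalized to controls.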

[3] = test system: P. falciparum Dd2 Cytb V259L; assay: SYBR Green ABS proliferation assay, NCGC00473217 selected clone F06; conditions: for AC50: Plasmodium falciparum
In short: as §1

[4] = test system: P. falciparum Dd2 Cytb A122D; assay: SYBR Green ABS proliferation assay, NCGC00473217 selected clone F12; conditions: for AC50: Plasmodium falciparum
In short: as §1

[5] = test system: P. falciparum Dd2 Cytb F123L; assay: SYBR Green ABS proliferation assay, NCGC00473217 selected clone G08; conditions: for AC50: Plasmodium falciparum
In short: as §1

[6] = DD2, Dd2 parental, Hill fit, averaged from three independent replicates, top concentration 29 µM, read-out: Average AC50 (Log[M]), Dd2 (converted)
[7] = DD2, […], averaged from three independent replicates, top concentration 29 µM, read-out: Average AC50 (Log[M]), NCGC00374598 clone C11 (Cytb G131S) (converted)
[8] = DD2, […], averaged from three independent replicates, top concentration 29 µM, read-out: Average AC50 (Log[M]), NCGC00473217 clone F06 (Cytb V259L) (converted)
[9] = DD2, […], averaged from three independent replicates, top concentration 29 µM, read-out: Average AC50 (Log[M]), NCGC00473217 clone F12 (Cytb A122D) (converted)
[10] = DD2, […], averaged from three independent replicates, top concentration 29 µM, read-out: Average AC50 (Log[M]), NCGC00473217 clone G08 (Cytb F123L) (converted)

SMILES: Cc1cc(Nc2ccc(S(F)(F)(F)(F)F)cc2)n2nc(C(C)(F)F)nc2n1 [DSM265, reference compound]
- AC50 ([1]; DD2, 72 h, SYBR Green 72 h, WT Dd2-B2, read-out: AC50 Log[M] ± SD, Dd2-B2 (parental line) (converted)): 3.8e-08 M
- AC50 ([1]; DD2, Suppl Table 6, read-out: AC50 (mM), WT (Dd2-B2)): 3.8e-08 M
- AC50 ([2]; DD2, NCGC00374598 selected clone, read-out: AC50 Log[M] ± SD, Cytb G131S (converted)): 2.4e-08 M
- AC50 ([2]; DD2, Suppl Table 6, read-out: AC50 (mM), Dd2 Cytb G131S): 2.4e-08 M
- susceptibility of V259L variant compared to parental line [3]: unchanged
- AC50 ([3]; DD2, NCGC00473217 selected clone, read-out: AC50 Log[M] ± SD, Cytb V259L (converted)): 3.16e-08 M
- AC50 ([3]; DD2, Suppl Table 6, read-out: AC50 (mM), Dd2 Cytb V259L): 3.16e-08 M
- susceptibility of A122D mutant compared to parental line [4]: significantly more susceptible
- AC50 ([4]; DD2, NCGC00473217 selected clone, read-out: AC50 Log[M] ± SD, Cytb A122D (converted)): 1.41e-08 M
- AC50 ([4]; DD2, Suppl Table 6, read-out: AC50 (mM), Dd2 Cytb A122D): 1.41e-08 M
- susceptibility of F123L mutant compared to parental line [5]: significantly more susceptible
- AC50 ([5]; DD2, NCGC00473217 selected clone, read-out: AC50 Log[M] ± SD, Cytb F123L (converted)): 1.95e-08 M
- AC50 ([5]; DD2, Suppl Table 6, read-out: AC50 (mM), Dd2 Cytb F123L): 1.95e-08 M

SMILES: CCCN1C(CC(C)C)=N[S+](=O)([O-])c2cc(NC(=O)c3ccccc3)ccc21 [NCGC00510420-02]
- AC50 [1, 6]: 1e-06 M
- AC50 [2, 7]: 4.23e-07 M
- AC50 [3, 8]: 1.12e-06 M
- AC50 [4, 9]: 1.06e-06 M
- AC50 [5, 10]: 2.12e-08 M

SMILES: CC(C)CC1=N[S+](=O)([O-])c2cc(NC(=O)c3ccco3)ccc2N1C [NCGC00510958-01]
- AC50 [1, 6]: 5.32e-06 M
- AC50 [2, 7]: 2.82e-06 M
- AC50 [3, 8]: 1.26e-05 M
- AC50 [4, 9]: 5.02e-06 M
- AC50 [5, 10]: 7.96e-07 M

SMILES: CCCN1C(CC(C)C)=N[S+](=O)([O-])c2cc(NC(=O)c3ccc(C)s3)ccc21 [NCGC00510977-01]
- AC50 [1, 6]: 8.61e-06 M
- AC50 [2, 7]: 8.93e-06 M
- AC50 [3, 8]: 1.04e-05 M
- AC50 [4, 9]: 7.96e-06 M
- AC50 [5, 10]: 8.93e-06 M

SMILES: CCCN1C(CC(C)C)=N[S+](=O)([O-])c2cc(NC(=O)c3sccc3C)ccc21 [NCGC00521035-01]
- AC50 [1, 6]: 1.59e-06 M
- AC50 [2, 7]: 1.65e-06 M
- AC50 [3, 8]: 6.84e-06 M
- AC50 [4, 9]: 2.82e-06 M
- AC50 [5, 10]: 9.46e-06 M

SMILES: CCCN1C(CC(C)C)=N[S+](=O)([O-])c2cc(NC(=O)c3nccs3)ccc21 [NCGC00521040-01]
- AC50 [1, 6]: 9.29e-06 M
- AC50 [2, 7]: 8.28e-07 M
- AC50 [3, 8]: 1.31e-05 M
- AC50 [4, 9]: 7.1e-06 M
- AC50 [5, 10]: 6.7e-06 M

SMILES: CCCN1C(CC(C)C)=N[S+](=O)([O-])c2cc(NC(=O)c3ccon3)ccc21 [NCGC00521044-01]
- AC50 [1, 6]: 1.26e-05 M
- AC50 [2, 7]: 6.7e-06 M
- AC50 [3, 8]: 7.96e-06 M
- AC50 [4, 9]: 9.46e-06 M
- AC50 [5, 10]: 4.15e-07 M

SMILES: CCCN1C(CC(C)C)=N[S+](=O)([O-])c2cc(NC(=O)c3ccno3)ccc21 [NCGC00521048-01]
- AC50 [1, 6]: 6.1e-06 M
- AC50 [2, 7]: 5.02e-06 M
- AC50 [3, 8]: 3.17e-06 M
- AC50 [4, 9]: 4.66e-06 M
- AC50 [5, 10]: 1.89e-07 M

SMILES: CCCN1C(CC(C)C)=N[S+](=O)([O-])c2cc(NC(=O)c3ncco3)ccc21 [NCGC00521053-01]
- AC50 [1, 6]: 1.08e-05 M
- AC50 [2, 7]: 1.12e-05 M
- AC50 [3, 8]: 9.66e-06 M
- AC50 [4, 9]: 7.96e-06 M
- AC50 [5, 10]: 1.42e-05 M

SMILES: CCCN1C(CC(C)C)=N[S+](=O)([O-])c2cc(NC(=O)c3cc(C)on3)ccc21 [NCGC00521054-01]
- AC50 [1, 6]: 8.93e-06 M
- AC50 [2, 7]: 1.26e-05 M
- AC50 [3, 8]: 2e-06 M
- AC50 [4, 9]: 2e-06 M
- AC50 [5, 10]: 4.48e-06 M

SMILES: CCCN1C(CC(C)C)=N[S+](=O)([O-])c2cc(NC(=O)c3c(Cl)cnn3C)ccc21 [NCGC00521056-01]
- AC50 [1, 6]: 1.65e-05 M
- AC50 [2, 7]: 1.12e-05 M
- AC50 [3, 8]: 8.61e-06 M
- AC50 [4, 9]: 6.32e-06 M
- AC50 [5, 10]: 1.22e-05 M

SMILES: CCCN1C(CC(C)C)=N[S+](=O)([O-])c2cc(NC(=O)COc3ccccc3)ccc21 [NCGC00521094-01]
- AC50 [1, 6]: 7.67e-06 M
- AC50 [2, 7]: 8.28e-06 M
- AC50 [3, 8]: 6.84e-06 M
- AC50 [4, 9]: 1.36e-05 M
- AC50 [5, 10]: 6.1e-06 M

SMILES: CCCN1C(CC(C)C)=N[S+](=O)([O-])c2cc(NC(=O)C3CCC3)ccc21 [NCGC00521095-01]
- AC50 [1, 6]: 3.17e-06 M
- AC50 [2, 7]: 3.36e-07 M
- AC50 [3, 8]: 2.99e-06 M
- AC50 [4, 9]: 1e-05 M
- AC50 [5, 10]: 6.7e-06 M

SMILES: CCCN1C(CC(C)C)=N[S+](=O)([O-])c2cc(NC(=O)c3cn(-c4ccccc4)cn3)ccc21 [NCGC00521102-01]
- AC50 [1, 6]: 7.67e-06 M
- AC50 [2, 7]: 2.62e-07 M
- AC50 [3, 8]: 2.99e-06 M
- AC50 [4, 9]: 3.56e-08 M
- AC50 [5, 10]: 3.56e-06 M

SMILES: CCCN1C(CC(C)C)=N[S+](=O)([O-])c2cc(NC(=O)C3CCCCC3)ccc21 [NCGC00521107-01]
- AC50 [1, 6]: 6.32e-06 M
- AC50 [2, 7]: 6.32e-06 M
- AC50 [3, 8]: 5.02e-06 M
- AC50 [4, 9]: 1.04e-05 M
- AC50 [5, 10]: 8.93e-06 M

SMILES: CCCN1C(CC(C)C)=N[S+](=O)([O-])c2cc(NC(=O)C3CCN(C)CC3)ccc21 [NCGC00521111-01]
- AC50 [1, 6]: 2.08e-05 M
- AC50 [2, 7]: 1.17e-06 M
- AC50 [3, 8]: 1.53e-05 M
- AC50 [4, 9]: 3.77e-07 M
- AC50 [5, 10]: 1.22e-05 M
